According to patent US7759345B2, “Antitumoral derivatives of ET-743” (priority 2001, dated 2010):

What was measured:
[1] = test system: Kidney
Excerpt: (§2) Toxicity was asssessed by the methods reported in Toxicology in Vitro, 15 (2001) 571-577, J. Luber Narod et al.: “Evaluation of the use of in vitro methodolodies as tools for screening new compounds for potential in vivo toxicity”.

[2] = test system: LoVo; test: Inhibition of cells growth by colorimetric assay (SRB), LoVo; format: cell-based; conditions: for GI50 / LC50 (concentration for 50% cell killing): Homo sapiens, LoVo, 48 h; for GI50 / LOVO TGI: SRB assay, 48 hours exposure; for GI50: read-out: LOVO GI50; for LC50 (concentration for 50% cell killing): read-out: LOVO LC50, SRB assay, 48 hours exposure
Method in brief: (§1)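 First, cells were plated at 5×10^3 per well and left 18 h to attach. Next, compound was added over 10 to 10^−8 μg/ml for 48 h. Finally, cells were TCA-fixed, SRB-stained and absorbance read at 490 nm.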

[3] = test system: HMEC1; test: Inhibition of cells growth by colorimetric assay (SRB), HMEC1; format: cell-based; conditions: for GI50 / LC50: Homo sapiens, HMEC-1, 48 h; for GI50 / HMEC-1 TGI: SRB assay, 48 hours exposure; for GI50: read-out: HMEC-1 GI50; for LC50: read-out: HMEC-1 LC50, SRB assay, 48 hours exposure
Method in brief: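 Compound in DMSO/EtOH/PBS vehicle was applied at 10 to 10^−8 μg/ml to attached cells (5×10^3/well, 18 h) for 48 h. Cells were then fixed with cold TCA and stained with 0.4% SRB in 1% acetic acid.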

[4] = test system: Heart
Excerpt: as §2

[5] = test system: Liver
Excerpt: as §2

[6] = test system: Skeletal
Excerpt: as §2

[7] = test system: SK-OV-3; test: Inhibition of cells growth by colorimetric assay (SRB), SK-OV-3; format: cell-based; conditions: for GI50 / LC50: Homo sapiens, SK-OV-3, 48 h; for GI50 / SK-OV3 TGI: SRB assay, 48 hours exposure; for GI50: read-out: SK-OV3 GI50; for LC50: read-out: SK-OV3 LC50, SRB assay, 48 hours exposure
Method in brief: as §1

[8] = test system: IGROV-1; test: Inhibition of cells growth by colorimetric assay (SRB), IGROV-1; format: cell-based; conditions: for GI50 / CC50: Homo sapiens, IGROV-1, 48 h; for GI50 / IGROV TGI: SRB assay, 48 hours exposure; for GI50: read-out: IGROV GI50; for CC50: read-out: IGROV LC50, SRB assay, 48 hours exposure
Method in brief: as §1

[9] = test system: A-549; test: Inhibition of cells growth by colorimetric assay (SRB), A-549; format: cell-based; conditions: for GI50 / LC50 (concentration for 50% cell killing): Homo sapiens, A549, 48 h; for GI50 / A-549 TGI: SRB assay, 48 hours exposure; for GI50: read-out: A-549 GI50; for LC50 (concentration for 50% cell killing): read-out: A-549 LC50, SRB assay, 48 hours exposure
Method in brief: as §1

[10] = test system: DU-145; test: Inhibition of cells growth by colorimetric assay (SRB), DU-145; format: cell-based; conditions: for GI50 / CC50: Homo sapiens, DU-145, 48 h; for GI50 / DU-145 TGI: SRB assay, 48 hours exposure; for GI50: read-out: DU-145 GI50; for CC50: read-out: DU-145 LC50, SRB assay, 48 hours exposure
Method in brief: as §1

[11] = test system: IGROV-ET; test: Inhibition of cells growth by colorimetric assay (SRB), IGROV-ET; format: cell-based; conditions: for GI50 / CC50: Homo sapiens, 48 h; for GI50 / IGROV-ET TGI: SRB assay, 48 hours exposure; for GI50: read-out: IGROV-ET GI50; for CC50: read-out: IGROV-ET LC50, SRB assay, 48 hours exposure
Method in brief: as §1

[12] = test system: HT-29; test: Inhibition of cells growth by colorimetric assay (SRB), HT-29; format: cell-based; conditions: for GI50 / LC50 (concentration for 50% cell killing): Homo sapiens, HT-29, 48 h; for GI50 / HT-29 TGI: SRB assay, 48 hours exposure; for GI50: read-out: HT-29 GI50; for LC50 (concentration for 50% cell killing): read-out: HT-29 LC50, SRB assay, 48 hours exposure
Method in brief: as §1

[13] = test system: PANC-1; test: Inhibition of cells growth by colorimetric assay (SRB), PANC-1; format: cell-based; conditions: for GI50 / LC50 (concentration for 50% net cell kill): Homo sapiens, PANC-1, 48 h; for GI50 / PANC-1 TGI: SRB assay, 48 hours exposure; for GI50: read-out: PANC-1 GI50; for LC50 (concentration for 50% net cell kill): read-out: PANC-1 LC50, SRB assay, 48 hours exposure
Method in brief: as §1

[14] = test system: Myelo
Excerpt: as §2

[15] = test system: K-562; test: Inhibition of cells growth by colorimetric assay (SRB), K-562; format: cell-based; conditions: for GI50 / LC50 (50% cell killing): Homo sapiens, K562, 48 h; for GI50 / K-562 TGI: SRB assay, 48 hours exposure; for GI50: read-out: K-562 GI50; for LC50 (50% cell killing): read-out: K-562 LC50, SRB assay, 48 hours exposure
Method in brief: as §1

[16] = test system: SK-MEL-28; test: Inhibition of cells growth by colorimetric assay (SRB), SK-MEL-28; format: cell-based; conditions: for GI50 / CC50: Homo sapiens, SK-MEL-28, 48 h; for GI50 / MEL-28 TGI: SRB assay, 48 hours exposure; for GI50: read-out: MEL-28 GI50; for CC50: read-out: MEL-28 LC50, SRB assay, 48 hours exposure
Method in brief: as §1

[17] = test system: LoVo-Dox; test: Inhibition of cells growth by colorimetric assay (SRB), LoVo-Dox; format: cell-based; conditions: for GI50 / CC50: Homo sapiens, 48 h; for GI50 / LOVO-DOX TGI: SRB assay, 48 hours exposure; for GI50: read-out: LOVO-DOX GI50; for CC50: read-out: LOVO-DOX LC50, SRB assay, 48 hours exposure
Method in brief: as §1

[18] = test system: SK-BR-3; test: Inhibition of cells growth by colorimetric assay (SRB), SK-BR-3; format: cell-based; conditions: for GI50 / CC50: Homo sapiens, SK-BR-3, 48 h; for GI50 / SK-BR3 TGI: SRB assay, 48 hours exposure; for GI50: read-out: SK-BR3 GI50; for CC50: read-out: SK-BR3 LC50, SRB assay, 48 hours exposure
Method in brief: as §1

[19] = test system: LNCaP; test: Inhibition of cells growth by colorimetric assay (SRB), LNCaP; format: cell-based; conditions: for GI50 / CC50: Homo sapiens, LNCaP, 48 h; for GI50: read-out: LNCAP GI50, SRB assay, 48 hours exposure; for CC50: read-out: LNCAP LC50, SRB assay, 48 hours exposure; for LNCAP TGI: SRB assay, 48 hours exposure
Method in brief: as §1

SMILES: COc1cc2c(cc1OC(=O)OC(C)(C)C)CCN[C@]21CS[C@@H]2c3c(OC(=O)[C@H](C)NC(=O)OC(C)(C)C)c(C)c4c(c3[C@H](COC1=O)N1C2[C@H]2c3c(cc(C)c(OC)c3O)C[C@@H]([C@@H]1O)N2C)OCO4 (stereo partly shown) [Compound 175]
- Toxicity Data Kidney [1]: 2.84E-09
- GI50 [2]: 2.3 nM
- LC50 (concentration for 50% cell killing) [2]: 8.33 nM
- LOVO TGI [2]: 4.38E-09
- GI50 [3]: 3.54 nM
- LC50 [3]: 10100 nM
- HMEC-1 TGI [3]: 1.29E-08
- Toxicity Data Heart [4]: 2.82E-09
- Toxicity Data Liver [5]: 3.87E-09
- Toxicity Data Skeletal [6]: 2.12E-07
- GI50 [7]: 3.56 nM
- LC50 [7]: 10100 nM
- SK-OV3 TGI [7]: 8.77E-09
- GI50 [8]: 0.641 nM
- CC50 [8]: 8.13 nM
- IGROV TGI [8]: 2.37E-09
- GI50 [9]: 2.25 nM
- LC50 (concentration for 50% cell killing) [9]: 7.97 nM
- A-549 TGI [9]: 4.24E-09
- GI50 [10]: 3.67 nM
- CC50 [10]: 10100 nM
- DU-145 TGI [10]: 9.20E-09
- GI50 [11]: 3.97 nM
- CC50 [11]: 1720 nM
- IGROV-ET TGI [11]: 9.56E-09
- GI50 [12]: 4.15 nM
- LC50 (concentration for 50% cell killing) [12]: 10100 nM
- HT-29 TGI [12]: 1.54E-08
- GI50 [13]: 4.38 nM
- LC50 (concentration for 50% net cell kill) [13]: 10100 nM
- PANC-1 TGI [13]: 1.33E-08
- Toxicity Data Myelo [14]: 1.59E-08
- GI50 [15]: 0.293 nM
- LC50 (50% cell killing) [15]: 0.775 nM
- K-562 TGI [15]: 4.76E-10
- GI50 [16]: 3.28 nM
- CC50 [16]: 25.2 nM
- MEL-28 TGI [16]: 6.63E-09
- GI50 [17]: 43.3 nM
- CC50 [17]: 10100 nM
- LOVO-DOX TGI [17]: 1.55E-07
- GI50 [18]: 1.31 nM
- CC50 [18]: 13.2 nM
- SK-BR3 TGI [18]: 3.78E-09
- GI50 [19]: 0.382 nM
- CC50 [19]: 3.64 nM
- LNCAP TGI [19]: 1.12E-09

SMILES: C=COC(=O)Oc1c(C)c2c(c3c1[C@H]1SC[C@]4(NCCc5cc(OC(=O)OC(C)(C)C)c(OC)cc54)C(=O)OC[C@@H]3N3C1[C@H]1c4c(cc(C)c(OC)c4O)C[C@@H]([C@@H]3O)N1C)OCO2 (stereo partly shown) [Compound 176]
- Toxicity Data Kidney [1]: 2.80E-09
- GI50 [2]: 11.1 nM
- LC50 (concentration for 50% cell killing) [2]: 112 nM
- LOVO TGI [2]: 5.12E-08
- GI50 [3]: 3.46 nM
- LC50 [3]: 11200 nM
- HMEC-1 TGI [3]: 1.48E-07
- Toxicity Data Heart [4]: 1.98E-08
- Toxicity Data Liver [5]: 2.95E-08
- Toxicity Data Skeletal [6]: 2.41E-08
- GI50 [7]: 3.26 nM
- LC50 [7]: 11 nM
- SK-OV3 TGI [7]: 8.07E-09
- GI50 [8]: 1.74 nM
- CC50 [8]: 10.7 nM
- IGROV TGI [8]: 4.30E-09
- GI50 [9]: 2.75 nM
- LC50 (concentration for 50% cell killing) [9]: 11.2 nM
- A-549 TGI [9]: 6.01E-09
- GI50 [10]: 5.24 nM
- CC50 [10]: 8360 nM
- DU-145 TGI [10]: 1.10E-08
- GI50 [11]: 4.88 nM
- CC50 [11]: 3450 nM
- IGROV-ET TGI [11]: 3.38E-08
- GI50 [12]: 3.83 nM
- LC50 (concentration for 50% cell killing) [12]: 11200 nM
- HT-29 TGI [12]: 7.96E-09
- GI50 [13]: 5.31 nM
- LC50 (concentration for 50% net cell kill) [13]: 3200 nM
- PANC-1 TGI [13]: 1.97E-08
- Toxicity Data Myelo [14]: 1.42E-08
- GI50 [15]: 0.737 nM
- LC50 (50% cell killing) [15]: 6.89 nM
- K-562 TGI [15]: 1.52E-09
- GI50 [16]: 25.8 nM
- CC50 [16]: 95.6 nM
- MEL-28 TGI [16]: 4.97E-08
- GI50 [17]: 47.3 nM
- CC50 [17]: 11200 nM
- LOVO-DOX TGI [17]: 1.15E-06
- GI50 [18]: 2.7 nM
- CC50 [18]: 40.6 nM
- SK-BR3 TGI [18]: 7.73E-09
- GI50 [19]: 1.62 nM
- CC50 [19]: 6.49 nM
- LNCAP TGI [19]: 3.25E-09
